From patent US11897851B2, “Heterocyclic GLP-1 agonists” (Gasherbrum Bio, Inc., priority 2021, dated 2024)

The compounds below were run against T1, GLP-1 Receptor (Homo sapiens, UniProt P43220) (assay: GLP-1R agonist cAMP stimulation assay (HEK293/GLP1R/CRE-LUC cells, Cisbio cAMP dynamic 2 kit)). Details: HEK293/CRE-Luc cell line stably expressing the GLP-1 Receptor; 1000 cells/well; 30 min at 37° C.; 0.5 mM IBMX, 0.1% BSA; read-out: GLP1R cAMP Stimulation DR: EC50.
T1 construct: host or cells: HEK293/GLP1R/CRE-LUC (HEK293/CRE-Luc stably expressing the GLP-1 receptor)
Type: cell-based
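Also: compounds tested in half-log serial dilution, cAMP detected with cAMP-d2 and anti-cAMP cryptate antibody reagents after 1 h at room temperature.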

T1 sequence (P43220 24-463, species assumed): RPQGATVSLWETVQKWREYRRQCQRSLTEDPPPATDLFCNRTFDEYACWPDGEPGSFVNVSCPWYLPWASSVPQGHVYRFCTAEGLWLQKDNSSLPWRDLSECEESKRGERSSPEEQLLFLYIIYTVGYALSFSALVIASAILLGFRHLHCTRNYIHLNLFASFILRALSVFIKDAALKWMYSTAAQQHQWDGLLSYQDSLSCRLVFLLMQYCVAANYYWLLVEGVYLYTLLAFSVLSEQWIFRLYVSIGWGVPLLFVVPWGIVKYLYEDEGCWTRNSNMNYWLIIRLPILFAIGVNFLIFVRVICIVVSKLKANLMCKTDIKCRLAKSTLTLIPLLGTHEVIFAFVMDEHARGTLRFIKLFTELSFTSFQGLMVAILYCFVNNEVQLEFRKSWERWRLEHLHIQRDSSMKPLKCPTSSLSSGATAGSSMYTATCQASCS

Row | Structure (SMILES) | EC50
1 | CCn1cncc1Cn1c(/C=C/C(=O)O)cnc1CN1CCC(c2cccc3c2O[C@](C)(c2ccc(Cl)cc2F)O3)CC1 [Compound 139b, (R,E)-3-(2-((4-(2-(4-chloro-2-fluorophenyl)-2-methylbenzo[d][1,3]dioxol-4-yl)piperidin-1-yl)methyl)-1-((1-ethyl-1H-imidazol-5-yl)methyl)-1H-imidazol-5-4)acrylic acid] | 0.2 nM
2 | COCCc1cc(-c2nnc(C(F)(F)F)[nH]2)cnc1CN1CCC(c2cccc3c2O[C@@](C)(c2ccc(Cl)cc2F)O3)CC1 [Compound 259, 2-({4-[(2S)-2-(4-chloro-2-fluorophenyl)-2-methyl-2H-1,3-benzodioxol-4-yl]piperidin-1-yl}methyl)-3-(2-methoxyethyl)-5-[5-(trifluoromethyl)-4H-1,2,4-triazol-3-yl]pyridine] | 0.53 nM
3 | C[C@]1(c2ccc(Cl)cc2F)Oc2cccc(C3CCN(Cc4ncc(/C=C/C(=O)O)n4C[C@H]4CCS4(=O)=O)CC3)c2O1 (single isomer, unassigned) [Compound 173b] | 0.0014 nM
4 | O=C(O)C1CC1c1ccc(CN2CCC(c3cccc(OCc4ccc(Cl)cc4F)n3)CC2)nc1 (stereo not drawn) [Compound 126, 2-(6-((4-(6-((4-chloro-2-fluorobenzyl)oxy)pyridin-2-yl)piperidin-1-yl)methyl)pyridin-3-yl)cyclopropane-1-carboxylic acid] | 817 nM
5 | COCCn1c(/C=C(\C)C(=O)O)nnc1CN1CCC(c2cccc(OCc3ccc(Cl)cc3F)n2)CC1 [Compound 224, (E)-3-(5-((4-(6-((4-chloro-2-fluorobenzyl)oxy)pyridin-2-yl)piperidin-1-yl)methyl)-4-(2-methoxyethyl)-4H-1,2,4-triazol-3-yl)-2-methylacrylic acid] | 2.1 nM
6 | CCn1cncc1Cn1c(CCC(=O)O)nnc1CN1CCC(c2cccc3c2OC[C@@H](c2ccc(Cl)cc2)O3)CC1 [Compound 246, (R)-3-(5-((4-(2-(4-chlorophenyl)-2,3-dihydrobenzo [b][1,4]dioxin-5-yl)piperidin-1-yl)methyl)-4-((1-ethyl-1H-imidazol-5-yl)methyl)-4H-1,2,4-triazol-3-yl)propanoic acid] | 0.38 nM
7 | C[C@]1(c2ccc(Cl)cn2)Oc2cccc(C3CCN(Cc4ncc(-c5nnc(C(F)(F)F)[nH]5)cc4CC4(C#N)CC4)CC3)c2O1 [Compound 277, 1-{[2-({4-[(2S)-2-(5-chloropyridin-2-yl)-2-methyl-2H-1,3-benzodioxol-4-yl]piperidin-1-yl}methyl)-5-[5-(trifluoromethyl)-4H-1,2,4-triazol-3-yl]pyridin-3-yl]methyl}cyclopropane-1-carbonitrile] | 0.023 nM
8 | CC1(c2ccc(Cl)cc2F)Oc2cccc(C3CCN(Cc4ncc(/C=C/C(=O)O)n4CC4CN(S(C)(=O)=O)C4)CC3)c2O1 (stereo not drawn) [Compound 174, (E)-3-(2-((4-(2-(4-chloro-2-fluorophenyl)-2-methylbenzo[d][1,3]dioxol-4-yl)piperidin-1-yl)methyl)-1-((1-(methylsulfonyl)azetidin-3-yl)methyl)-1H-imidazol-5-yl)acrylic acid] | 6.4 nM
9 | CCn1cncc1Cn1c(CCC(=O)O)cnc1CN1CCC(c2cccc(OCc3ccc(Cl)cc3F)n2)CC1 [Compound 244, 3-(2-((4-(6-((4-chloro-2-fluorobenzyl)oxy)pyridin-2-yl)piperidin-1-yl)methyl)-1-((1-ethyl-1H-imidazol-5-yl)methyl)-1H-imidazol-5-yl)propanoic acid] | 0.023 nM
10 | C[C@]1(c2ccc(Cl)cc2F)Oc2cccc(C3CCN(Cc4ncc(-c5nnc(C(F)(F)F)[nH]5)cc4C4CCOC4)CC3)c2O1 (stereo partly drawn) [Compound 282, 2-({4-[(2S)-2-(4-chloro-2-fluorophenyl)-2-methyl-2H-1,3-benzodioxol-4-yl]piperidin-1-yl}methyl)-3-(oxolan-3-yl)-5-[5-(trifluoromethyl)-4H-1,2,4-triazol-3-yl]pyridine] | 3.7 nM
11 | Cc1ncc(Cn2c(/C=C/C(=O)O)cnc2CN2CCC(c3cccc4c3OC(C)(c3ccc(Cl)cc3F)O4)CC2)o1 (stereo not drawn) [Compound 202, (E)-3-(2-((4-(2-(4-chloro-2-fluorophenyl)-2-methylbenzo[d][1,3]dioxol-4-yl)piperidin-1-yl)methyl)-1-((2-methyloxazol-5-yl)methyl)-1H-imidazol-5-yl)acrylic acid] | 0.26 nM
12 | C[C@]1(c2ccc(Cl)cc2F)Oc2cccc(C3CCN(Cc4ncc(/C=C/C(=O)O)n4CCOC(F)(F)F)CC3)c2O1 [Compound 145, (S,E)-3-(2-((4-(2-(4-chloro-2-fluorophenyl)-2-methylbenzo[d][1,3]dioxol-4-yl)piperidin-1-yl)methyl)-1-(2-(trifluoromethoxy)ethyl)-1H-imidazol-5-yl)acrylic acid] | 0.16 nM
13 | O=C(O)/C=C/c1cnc(CN2CCC(c3cccc4c3OC[C@@H](c3ccc(Cl)cc3)O4)CC2)n1C[C@@H]1CCO1 [Compound 116a, (E)-3-(2-((4-((R)-2-(4-Chlorophenyl)-2,3-dihydrobenzo[b][1,4]dioxin-5-yl)piperidin-1-yl)methyl)-1-(((S)-oxetan-2-yl)methyl)-1H-imidazol-5-yl)acrylic acid] | 0.71 nM
14 | O=C(O)CCc1cnc(CN2CCC(c3cccc(OCc4ccc(Cl)cc4F)n3)CC2)n1C[C@@H]1CCO1 [Compound 102a, (S)-3-(2-((4-(6-((4-chloro-2-fluorobenzyl)oxy)pyridin-2-yl)piperidin-1-yl)methyl)-1-(oxetan-2-ylmethyl)-1H-imidazol-5-yl)propanoic acid] | 1.6 nM
15 | COc1cccc(Cn2c(/C=C/C(=O)O)cnc2CN2CCC(c3cccc4c3OC(C)(c3ccc(Cl)cc3F)O4)CC2)c1 (stereo not drawn) [Compound 149, (E)-3-(2-((4-(2-(4-chloro-2-fluorophenyl)-2-methylbenzo[d][1,3]dioxol-4-yl)piperidin-1-yl)methyl)-1-(3-methoxybenzyl)-1H-imidazol-5-yl)acrylic acid] | 0.12 nM
16 | C[C@@H](Cn1c(/C=C/C(=O)O)cnc1CN1CCC(c2cccc3c2O[C@@](C)(c2ccc(Cl)cc2F)O3)CC1)OC1CC1 [Compound 170a, (E)-3-(2-((4-((S)-2-(4-chloro-2-fluorophenyl)-2-methylbenzo[d][1,3]dioxol-4-yl)piperidin-1-yl)methyl)-1-((S)-2-cyclopropoxypropyl)-1H-imidazol-5-yl)acrylic acid] | 2.5 nM
17 | CCn1cncc1Cn1c(/C=C/C(=O)O)cnc1CN1CCC(c2cccc(OCc3ccc(Cl)cc3F)n2)CC1 [Compound 214, (E)-3-(2-((4-(6-((4-chloro-2-fluorobenzyl)oxy)pyridin-2-yl)piperidin-1-yl)methyl)-1-((1-ethyl-1H-imidazol-5-yl)methyl)-1H-imidazol-5-yl)acrylic acid] | 0.0032 nM
18 | O=C(O)/C=C/c1nnc(CN2CCC(c3cccc(OCc4ccc(Cl)cc4F)n3)CC2)n1CC(F)F [Compound 230, (E)-3-(5-((4-(6-((4-chloro-2-fluorobenzyl)oxy)pyridin-2-yl)piperidin-1-yl)methyl)-4-(2,2-difluoroethyl)-4H-1,2,4-triazol-3-yl)acrylic acid] | 41 nM
19 | O=C(O)COc1ccc(CN2CCC(c3cccc(OCc4ccc(Cl)cc4F)n3)CC2)nc1 [Compound 119, 2-((6-((4-(6-((4-chloro-2-fluorobenzyl)oxy)pyridin-2-yl)piperidin-1-yl)methyl)pyridin-3-yl)oxy)acetic acid] | 1500 nM
20 | C/C(=C\c1nnc(CN2CCC(c3cccc4c3OC(C)(c3ccc(Cl)cc3F)O4)CC2)n1C[C@@H]1CCO1)C(=O)O (stereo partly drawn) [Compound 137a, (E)-3-(5-((4-(2-(4-chloro-2-fluorophenyl)-2-methylbenzo[d][1,3]dioxol-4-yl)piperidin-1-yl)methyl)-4-(((S)-oxetan-2-yl)methyl)-4H-1,2,4-triazol-3-yl)-2-methylacrylic acid] | 0.3 nM
21 | CC1(c2ccc(Cl)cc2F)Oc2cccc(C3CCN(Cc4ncc(/C=C/C(=O)O)n4Cc4cccnc4C(F)(F)F)CC3)c2O1 (stereo not drawn) [Compound 146, (E)-3-(2-((4-(2-(4-chloro-2-fluorophenyl)-2-methylbenzo[d][1,3]dioxol-4-yl)piperidin-1-yl)methyl)-1-((2-(trifluoromethyl)pyridin-3-yl)methyl)-1H-imidazol-5-yl)acrylic acid] | 1.9 nM
22 | Fc1cc(Cl)ccc1COc1cccc(C2CCN(Cc3ccc(-c4nn[nH]n4)cn3)CC2)n1 [Compound 127, 2-((4-(6-((4-chloro-2-fluorobenzyl)oxy)pyridin-2-yl)piperidin-1-yl)methyl)-5-(2H-tetrazol-5-yl)pyridine] | 147 nM
23 | CC1(c2ccc(Cl)cc2F)Oc2cccc(C3CCN(Cc4ncc(/C=C/C(=O)O)n4Cc4ccccc4)CC3)c2O1 (stereo not drawn) [Compound 151, (E)-3-(1-benzyl-2-((4-(2-(4-chloro-2-fluorophenyl)-2-methylbenzo[d][1,3]dioxol-4-yl)piperidin-1-yl)methyl)-1H-imidazol-5-yl)acrylic acid] | 0.043 nM
24 | O=C(O)CCc1ccc(CN2CCC(c3cccc(OCc4ccc(Cl)cc4F)n3)CC2)c(=O)[nH]1 [Compound 121, 3-(5-((4-(6-((4-chloro-2-fluorobenzyl)oxy)pyridin-2-yl)piperidin-1-yl)methyl)-6-oxo-1,6-dihydropyridin-2-yl)propanoic acid] | > 1000 nM
25 | Cc1cc(-c2noc(=O)[nH]2)cnc1CN1CCC(c2cccc3c2OC(C)(c2ccc(Cl)cc2F)O3)CC1 (stereo not drawn) [Compound 252, 3-(6-((4-(2-(4-chloro-2-fluorophenyl)-2-methylbenzo[d][1,3]dioxol-4-yl)piperidin-1-yl)methyl)-5-methylpyridin-3-yl)-1,2,4-oxadiazol-5(4H)-one] | 11 nM
26 | C/C(=C\c1cnc(CN2CCC(c3cccc4c3O[C@H](c3ccc(Cl)cc3)O4)CC2)n1C[C@@H]1CCO1)C(=O)O [Compound 133b, (E)-3-(2-((4-((R)-2-(4-chlorophenyl)benzo[d][1,3]dioxol-4-yl)piperidin-1-yl)methyl)-1-(((S)-oxetan-2-yl)methyl)-1H-imidazol-5-yl)-2-methylacrylic acid] | 48 nM
27 | CC1(C)C[C@@H](Cn2c(/C=C/C(=O)O)cnc2CN2CCC(c3cccc4c3OC(C)(c3ccc(Cl)cc3F)O4)CC2)CO1 (single isomer, unassigned) [Compound 171a] | 10 nM
